Results from US20180015051A1, “MODULATORS OF ALPHA-DICARBONYL DETOXIFICATION AND THEIR USE FOR THE TREATMENT OF DIABETIC PATHOLOGIES” (Buck Institute for Research on Aging, priority 2016, published 2018).

Legend:
glod-4 animals = assay: LC-MS/MS estimation of a-DC levels (MGO, GO) in worms; assay type: in vivo, Caenorhabditis elegans; settings: for Levels of GO / Levels of MGO: glod-4, PA; for Levels of GO: LA, or UMP (20 pM each) vs EtOH control; for Levels of MGO: LA, or UMP (20 pM) vs EtOH control
Experimental: Worms were cultured on NGM agar plates as explained before for lifespan experiments with some modifications: ˜100 animals/60 mm plates were used for each experimental replicate and animals were harvested at day 4 of adulthood with 20 pL M9 buffer in 1.5 mL eppendorf tubes. Worm suspensions were flash-frozen over liquid nitrogen and subsequently homogenized ultrasonically using a Fisher Scientific's 550 Sonic Dismembrator with 80 pL of sodium formate buffer (pH=3) containing 75 pM of 2,3-hexanedione (internal standard, IS). Two 20 s pulses at amplitude setting 4 of the instrument (on ice) were sufficient to completely homogenize worm bodies. To each homogenate tube 20 pL of 100 mg/mL o-phenelynediamine (OPD) solution in sodium formate buffer (pH=3) were added, and the mixture was allowed to react in dark at room temperature for ˜22 h. The long reaction time and the pH are critical parameters in this protocol: first to ensure complete derivatization of a-DCs bound reversibly to protein/glutathione —SHs; and second to prevent in vitro a-DC generation from glycolytic intermediates (DHAP, GAP, etc.) or due to DNA breakdown (Chaplen et al. (1998) Proc. Natl. Acad. Sci. USA, 95: 5533-5538). At the end of the stipulated reaction window, 12 pL of 5 M perchloric acid was added to each tube and incubated on ice for 30 min to ensure complete protein precipitation. Subsequently, the tubes were centrifuged at 10,000 rpm for 10 min, and the supernatant collected and neutralized with 30 pL 4 M NH4OH solution.
Optimization of analyte-specific MRM transitions, such as determination of suitable precursor and product ions and optimal MS parameters for each transition (Q1, precursor→Q3, product) were achieved by isocratic flow injection of the 10 pM solution (final) for each standard- or IS-OPD derivatives. The most intense (Q1→Q3) transition was used as quantifier, whereas the next best transition was used as qualifier for each compound (Table 4). For LC separation, a solvent gradient of 0.1% acetic acid in water (aqueous) - methanol (organic) was used with 0.4 mL/min flow rate, starting with an […] content of 3% for 0.7 min, which was increased to 100% over 6 min and held at 100% for 1.5 min. The LC column was subsequently reconstituted to its initial condition (methanol content of 3%) over the next 0.5 min and re-equilibrated for 3 min.
Derivatized metabolome extracts, as well as synthetic a-DCs were analyzed by scheduled LC-MRM in positive ion mode. To develop the scheduled LC-MRM method, MS/MS data was collected for all transitions across the length of each LC run for a mixture of synthetic GO-, MGO-, 3DG-, and 2,3-hexanedione (IS)-OPD derivatives (1 pL injection of 1 pM final concentration). Source conditions were as follows: curtain gas (CUR) 20, nebulizer gas (GS1) 60, auxiliary gas (GS2) 50, ionspray voltage (IS) 4500 V, and source temperature (TEM) 450° C. This step was undertaken to ascertain the LC retention times (RT) for the OPD derivatives. Several such sets were acquired to compute analyte-specific variability in RTs. Next, the MS was switched to operate in scheduled MRM mode, whereby the mass spectrometer acquired data for specific MRM transitions ±45 s around the computed RT for the analyte (Table 4). Relative quantification of GO, MGO, and 3DG were based on integration of corresponding OPD derivative-specific quantifier peaks obtained from scheduled LC-MRM runs (peak areas) and adjusted to the number of animals. To account for OPD derivatization efficiencies in individual tubes, sample-to-sample variability in MS response, and differential sample dilutions (both for synthetic a-DCs as well as a-DCs in worm homogenates), the peak areas were normalized to the quantifier peak area for IS-OPD for each sample.

C. elegans [1] = assay: Touch assay (touch index, gentle touch)
Experimental: For feeding RNAi bacteria, synchronized L1 larvae were transferred to NGM plates containing 1 mM of isopropyl P-D-1- thiogalactopyranoside/IPTG (referred to as RNAi plates) seeded with 20× concentrated HT1115 bacteria (cultured overnight at 20° C. at 220 rpm), carrying desired plasmid for RNAi of a specific gene or bacteria carrying empty vector pL4440 as control and allowed to grow on plates for 48 h. For drug assays, synchronized L4 larvae were transferred to either 60 mm NGM plates (with or without IPTG), freshly seeded with 5×E. coli OP50-1 or 20× HT1115 RNAi bacteria. Before seeding, the desired drug (or vehicle control) was mixed with the bacteria. Final drug concentrations were calculated considering the total volume of media and bacteria seeded on the NGM plates.
Briefly, each animal was touched alternately in the head region and in the tail with an eyelash. Typically, an omega turn or diversion in head direction resulting from anterior touch was counted as a positive response. Posterior touch response (not counted towards positive response) functioned towards resetting of the response to anterior touch. Touch index (TI) scores were generated by dividing the total number of positive responses over the […] per animal.
Synchronized glod-4 L1 animals were cultured on NGM agar plates seeded with E. coli OP50-1 until L4. […] Post-transfer into wells, animals were fed OP50-1 bacteria ad libitum while incubating at 20° C. on a rocker for 12 h. DMSO was used as control. Post-incubation with drug or DMSO, animals were transferred from wells onto NGM agar plates seeded with OP50-1 bacteria. Touch assay was performed on individual animal and touch index (TI) was calculated for each compound from the library as mentioned earlier.

C. elegans [2] = assay: Neuronal damage assay, pan-neuronal GFP reporter (unc-33p::gfp); assay type: in vivo, Caenorhabditis elegans
Experimental: Animals were paralyzed using freshly prepared 5 mM levamisole in M9 buffer and mounted on 2% agar pads under glass coverslips. […] Images were acquired under 40× objective. Neuronal deterioration was examined and characterized by loss of fluorescent intensity of nerve ring, neuronal waviness, and thinning and fragmentation of axons and neuronal commissures. Quantification and imaging of animals harboring damage was performed using the Image J™ software (//imagei.nih.gov/ii/).

SMILES: O=C(O)CCCCC1CCSS1 (stereo not shown) [LA, a-lipoic acid]
- Levels of GO (glod-4 animals): almost wild-type-like levels
- Levels of MGO (glod-4 animals): almost wild-type-like levels

SMILES: CC(=O)C=O [MGO, methylglyoxal]
- Touch sensitivity (touch index) (C. elegans [1]; N2 animals, young adult stage, 7 mM MGO vs water): hyperesthesia
- Neuronal damage (C. elegans [2]; unc-33p::gfp, day 4 of adulthood, 7 mM MGO vs water): neuronal damage

SMILES: C[C@]1(C(=O)O)CCC[C@]2(C)c3cc(O)ccc3CC[C@@H]12 [PA, podocarpic acid]
- Touch sensitivity (touch index), lack of touch sensitivity (C. elegans [1]; glod-4, day 8 of adulthood, PA (20 pM) vs EtOH control): lack of touch sensitivity to wild-type levels
- Touch sensitivity (touch index), hyperesthesia (C. elegans [1]; glod-4, young adult stage, PA (20 pM) vs EtOH control): revert the hyperesthesia
- Neuronal damage (C. elegans [2]; unc-33p::gfp on glod-4 RNAi, day 10 of adulthood, PA (20 pM) vs EtOH control): prevent the prominent neuronal damages
- Levels of GO (glod-4 animals): almost wild-type-like levels
- Levels of MGO (glod-4 animals): almost wild-type-like levels
- Levels of MGO under trpa-1 knockdown (glod-4 animals; glod-4 on trpa-1 RNAi, PA vs EtOH control): no effect
